# Data from patent US8889677B2, “Substituted triazoles useful as mGlu5 receptor modulators” (Boehringer Ingellheim International GmbH, priority 2012, dated 2014).
# Molecular target: T1, human recombinant mGluR5 (Homo sapiens, UniProt P41594)
# T1 construct: expressed in transfected cells; host or cells: HEK 293 cell line cultured with tetracycline, hygromycin and geneticin; tetracycline removed 3-7 days before the assay
# Assay: positive modulation of mGluR5, calcium based FLIPR assay in HEK 293 cells
# Settings: HEK 293 cell line expressing human recombinant mGluR5; EC50 of the modulation of the glutamate response (glutamate approx. 5% basal stimulation); peak height of Ca release fluorescence signal
# How it was run: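 Potentiation EC50 derived by nonlinear fit of peak calcium fluorescence after a near-5%-maximal glutamate challenge, following 5 min compound exposure (intrinsic activity also recorded). Dye-loaded recombinant human mGluR5 HEK 293 cells in Ringer solution pH 7.4, 1% DMSO; plate controls were vehicle (100%) and 10 μM CDPPB (200%).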
# T1 sequence (P41594 21-1212): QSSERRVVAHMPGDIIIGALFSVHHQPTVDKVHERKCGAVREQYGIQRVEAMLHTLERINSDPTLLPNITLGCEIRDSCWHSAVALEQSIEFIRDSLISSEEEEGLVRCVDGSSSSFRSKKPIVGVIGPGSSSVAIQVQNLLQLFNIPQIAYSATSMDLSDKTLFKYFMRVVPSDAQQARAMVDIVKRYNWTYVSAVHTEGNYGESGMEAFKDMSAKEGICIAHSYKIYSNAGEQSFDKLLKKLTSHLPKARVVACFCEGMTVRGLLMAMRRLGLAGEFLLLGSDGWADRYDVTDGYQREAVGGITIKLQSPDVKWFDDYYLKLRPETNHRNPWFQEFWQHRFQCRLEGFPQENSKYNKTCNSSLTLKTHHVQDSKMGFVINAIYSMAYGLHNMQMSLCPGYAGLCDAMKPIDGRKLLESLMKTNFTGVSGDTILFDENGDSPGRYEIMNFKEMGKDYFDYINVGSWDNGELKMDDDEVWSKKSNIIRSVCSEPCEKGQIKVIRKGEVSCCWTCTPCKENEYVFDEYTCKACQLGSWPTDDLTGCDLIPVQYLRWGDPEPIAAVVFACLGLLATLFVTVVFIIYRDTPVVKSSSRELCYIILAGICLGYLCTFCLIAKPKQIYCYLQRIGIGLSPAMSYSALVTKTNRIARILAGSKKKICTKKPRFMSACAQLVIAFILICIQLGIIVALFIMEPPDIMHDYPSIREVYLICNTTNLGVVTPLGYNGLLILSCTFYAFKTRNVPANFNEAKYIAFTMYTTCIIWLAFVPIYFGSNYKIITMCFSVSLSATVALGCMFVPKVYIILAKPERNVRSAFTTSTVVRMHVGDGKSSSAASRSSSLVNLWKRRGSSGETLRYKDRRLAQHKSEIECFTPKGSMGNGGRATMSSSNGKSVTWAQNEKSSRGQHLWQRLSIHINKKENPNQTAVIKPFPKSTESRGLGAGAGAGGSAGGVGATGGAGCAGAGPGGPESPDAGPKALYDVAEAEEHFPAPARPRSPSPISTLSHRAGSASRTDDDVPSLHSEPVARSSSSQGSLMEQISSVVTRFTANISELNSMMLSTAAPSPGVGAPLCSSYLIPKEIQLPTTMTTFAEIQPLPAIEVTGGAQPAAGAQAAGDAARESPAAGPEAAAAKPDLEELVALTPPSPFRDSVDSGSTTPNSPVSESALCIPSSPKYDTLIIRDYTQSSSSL
row,EC50,SMILES
1,1050 nM,CC(C)Oc1ccc(-c2nc(-c3ccccc3)n(CC(=O)N3CCN(c4ncccn4)CC3)n2)cc1 [Example 07.10.18.]
2,233 nM,Cc1cccc(-c2nc(-c3ccccc3)nn2CC(=O)N2CCN(c3ncccn3)CC2)c1 [Example 07.10.19.]
3,35 nM,CC(C)c1ccc(-c2nc(-c3ccccc3)nn2CC(=O)N2CCN(c3ncccn3)CC2)cc1 [Example 07.10.20.]
4,1500 nM,N#CCc1ccc(-c2nc(-c3ccccc3)nn2CC(=O)N2CCN(c3ncccn3)CC2)cc1 [Example 07.10.21.]
5,87 nM,Cc1ccc(-c2nc(-c3ccccc3)nn2CC(=O)N2CCN(c3ncccn3)CC2)cc1 [Example 07.10.22.]
6,459 nM,O=C(Cn1nc(-c2ccccc2)nc1C1=CCCC1)N1CCN(c2ncccn2)CC1 [Example 07.10.23.]
7,300 nM,COCc1ccc(-c2nc(-c3ccccc3)nn2CC(=O)N2CCN(c3ncccn3)CC2)cc1 [Example 07.10.24.]
8,639 nM,N#Cc1ccc(-c2nc(-c3ccccc3)nn2CC(=O)N2CCN(c3ncccn3)CC2)cc1 [Example 07.10.25.]
9,543 nM,O=C(Cn1nc(-c2ccccc2)nc1C1=CCCCC1)N1CCN(c2ncccn2)CC1 [Example 07.10.26.]
10,1470 nM,C=C(C)c1nc(-c2ccccc2)nn1CC(=O)N1CCN(c2ncccn2)CC1 [Example 07.10.27.]
11,804 nM,O=C(Cn1nc(-c2ccccc2)nc1-c1ccc(CN2CCOCC2)cc1)N1CCN(c2ncccn2)CC1 [Example 07.10.28.]
12,219 nM,COc1cc(N2CCN(C(=O)Cn3nc(-c4ccc(C5CC5)cc4)nc3-c3ccccc3)CC2)ncn1 [Example 07.10.29.]
13,50 nM,COc1cc(N2CCN(C(=O)Cn3nc(-c4ccc(C)c(C)c4)nc3-c3ccccc3)CC2)ncn1 [Example 07.10.30.]
14,270 nM,COc1cc(N2CCN(C(=O)Cn3nc(-c4ccc(F)c(C(F)(F)F)c4)nc3-c3ccccc3)CC2)ncn1 [Example 07.10.31.]
15,225 nM,COc1cc(N2CCN(C(=O)Cn3nc(-c4ccc(F)cc4)nc3-c3ccccc3)CC2)ncn1 [Example 07.10.32.]
16,359 nM,COc1cc(N2CCN(C(=O)Cn3nc(-c4ccc(F)c(F)c4)nc3-c3ccccc3)CC2)ncn1 [Example 07.10.33.]
17,157 nM,COc1cc(N2CCN(C(=O)Cn3nc(-c4cccc(C(C)C)c4)nc3-c3ccccc3)CC2)ncn1 [Example 07.10.34.]
18,98 nM,COc1cc(N2CCN(C(=O)Cn3nc(-c4cccc(C)c4)nc3-c3ccccc3)CC2)ncn1 [Example 07.10.35.]
19,121 nM,COc1cc(N2CCN(C(=O)Cn3nc(-c4cc(C)cc(C)c4)nc3-c3ccccc3)CC2)ncn1 [Example 07.10.36.]
20,101 nM,COc1cc(N2CCN(C(=O)Cn3nc(-c4ccc(F)c(Cl)c4)nc3-c3ccccc3)CC2)ncn1 [Example 07.10.37.]
21,389 nM,COc1cc(N2CCN(C(=O)Cn3nc(-c4cc(F)c(F)c(F)c4)nc3-c3ccccc3)CC2)ncn1 [Example 07.10.39.]
22,128 nM,O=C(Cn1nc(-c2ccc(F)cc2)nc1-c1ccccc1)N1CCN(c2ccccn2)CC1 [Example 07.10.40.]
23,182 nM,COc1ccc(-c2nc(-c3ccc(F)cc3)nn2CC(=O)N2CCN(c3ccccn3)CC2)cc1 [Example 07.10.41.]
24,98 nM,"O=C(Cn1nc(-c2ccc(F)cc2)nc1C#Cc1ccccc1)N1CCN(c2ccccn2)CC1 [Example 07.11.01., 2-(3-(4-fluoro-phenyl)-5-phenylethynyl-(1,2,4)triazol-1-yl)-1-(4-pyridin-2-yl-piperazin-1-yl)-ethanone]"
25,416 nM,O=C(Cn1nc(-c2ccc(F)cc2)nc1C#CC1CCCCC1)N1CCN(c2ccccn2)CC1 [Example 07.11.02.]

# Continued, compound first:
row,SMILES,EC50
1,O=C(Cn1nc(-c2ccc(F)cc2)nc1-c1ccc(F)cc1)N1CCN(c2cc(OC[C@@H]3CCCO3)ncn2)CC1 [Example 07.09.23.],62 nM
2,O=C1CC(COc2cc(N3CCN(C(=O)Cn4nc(-c5ccc(F)cc5)nc4-c4ccc(F)cc4)CC3)ncn2)CN1 (stereo not shown) [Example 07.09.24.],101 nM
3,CN(CCO)CCOc1cc(N2CCN(C(=O)Cn3nc(-c4ccc(F)cc4)nc3-c3ccc(F)cc3)CC2)ncn1 [Example 07.09.25.],301 nM
4,CN1CCN(CCCOc2cc(N3CCN(C(=O)Cn4nc(-c5ccc(F)cc5)nc4-c4ccc(F)cc4)CC3)ncn2)CC1 [Example 07.09.26.],252 nM
5,O=C1CCCN1CCCOc1cc(N2CCN(C(=O)Cn3nc(-c4ccc(F)cc4)nc3-c3ccc(F)cc3)CC2)ncn1 [Example 07.09.27.],86 nM
6,CN1CCN(CCOc2cc(N3CCN(C(=O)Cn4nc(-c5ccc(F)cc5)nc4-c4ccc(F)cc4)CC3)ncn2)CC1 [Example 07.09.28.],523 nM
7,O=C(Cn1nc(-c2ccc(F)cc2)nc1-c1ccc(F)cc1)N1CCN(c2cc(OCC3CCOCC3)ncn2)CC1 [Example 07.09.29.],44 nM
8,COC[C@H](C)Oc1cc(N2CCN(C(=O)Cn3nc(-c4ccc(F)cc4)nc3-c3ccc(F)cc3)CC2)ncn1 [Example 07.09.30.],75 nM
9,"Cc1cc(-c2nc(-c3ccccc3)n(CC(=O)N3CCN(c4ncccn4)CC3)n2)ccc1F [Example 07.10.01., 2-(3-(4-fluoro-3-methyl-phenyl)-5-phenyl-(1,2,4)triazol-1-yl)-1-(4-pyrimidin-2-yl-piperazin-1-yl)-ethanone]",11 nM
10,COc1ccc(-c2nc(-c3ccccc3)n(CC(=O)N3CCN(c4ncccn4)CC3)n2)cc1 [Example 07.10.02.],37 nM
11,CCc1cccc(-c2nc(-c3ccccc3)n(CC(=O)N3CCN(c4ncccn4)CC3)n2)c1 [Example 07.10.03.],15 nM
12,CCOc1cccc(-c2nc(-c3ccccc3)n(CC(=O)N3CCN(c4ncccn4)CC3)n2)c1 [Example 07.10.04.],43 nM
13,Cc1cccc(-c2nc(-c3ccccc3)n(CC(=O)N3CCN(c4ncccn4)CC3)n2)c1 [Example 07.10.05.],17 nM
14,N#Cc1cccc(-c2nc(-c3ccccc3)n(CC(=O)N3CCN(c4ncccn4)CC3)n2)c1 [Example 07.10.06.],164 nM
15,O=C(Cn1nc(-c2cccc(F)c2)nc1-c1ccccc1)N1CCN(c2ncccn2)CC1 [Example 07.10.07.],189 nM
16,COCc1cccc(-c2nc(-c3ccccc3)n(CC(=O)N3CCN(c4ncccn4)CC3)n2)c1 [Example 07.10.08.],181 nM
17,COc1cc(OC)cc(-c2nc(-c3ccccc3)n(CC(=O)N3CCN(c4ncccn4)CC3)n2)c1 [Example 07.10.09.],553 nM
18,COc1cccc(-c2nc(-c3ccccc3)n(CC(=O)N3CCN(c4ncccn4)CC3)n2)c1 [Example 07.10.10.],50 nM
19,Cc1ccc(-c2nc(-c3ccccc3)n(CC(=O)N3CCN(c4ncccn4)CC3)n2)cc1 [Example 07.10.12.],23 nM
20,CCOc1ccc(-c2nc(-c3ccccc3)n(CC(=O)N3CCN(c4ncccn4)CC3)n2)cc1 [Example 07.10.13.],77 nM
21,O=C(Cn1nc(-c2ccc(F)cc2)nc1-c1ccccc1)N1CCN(c2ncccn2)CC1 [Example 07.10.14.],33 nM
22,Cc1ccc(-c2nc(-c3ccccc3)n(CC(=O)N3CCN(c4ncccn4)CC3)n2)cc1C [Example 07.10.15.],24 nM
23,Cc1cc(C)cc(-c2nc(-c3ccccc3)n(CC(=O)N3CCN(c4ncccn4)CC3)n2)c1 [Example 07.10.16.],31 nM
24,COc1ccc(-c2nc(-c3ccccc3)n(CC(=O)N3CCN(c4ncccn4)CC3)n2)cc1C [Example 07.10.17.],43 nM
